From US11324787B2, “Analytical methods and arrays for use in the same” (SENZAGEN AB, priority 2017, dated 2022)
Several values for one entry are separate records, joined by “and”; a condition that tells them apart may be missing. Equal values may be shown once. Entries after “also recorded” stand apart in the source; their conditions may differ. Where a name gives a salt, the structure may show the parent alone. Read-outs that look alike come from different tables or passages of the source.

Legend:
[1] = cited from earlier work; for binary class: sens / non-sens; for true CLP: test set
[2] = cited from earlier work; for binary class (HP*): based on human potency [41] where available, otherwise according to CLP; for HP: human potency, chemicals of random forest training and test set; for Human potency [41]: test set
[3] = tested on: myeloid cell line derived from MUTZ-3; assay: GARD random forest model predicting CLP categories (52 transcripts, Example A); settings: test set; for GARD predicted CLP: majority voting across replicates; for predicted CLP: separate replicates
[4] = tested on: myeloid cell line derived from MUTZ-3; assay: GARD binary classification (SVM on GARD prediction signature, 200 transcripts); settings: for GARD binary prediction: SVM, median calibrated decision value of replicates >0 = sensitizer
[5] = tested on: myeloid cell line derived from MUTZ-3; assay: Cytotoxicity / viability by flow cytometry (propidium iodide), 24 hours exposure; settings: yes/no; MUTZ-3 derived cells
[6] = chemicals of random forest training and test set
[7] = CLP annotation of 37 novel chemicals
[8] = Table 9, chemicals training set

Compound | CLP ([1]; Table 10, chemicals test set 1) | CLP [1, 6] | binary class [1, 6] | true CLP ([1]; per replicate line) | true CLP [1] | binary class (HP*) [2] | GARD predicted CLP [3] | predicted CLP [3] | CLP [1, 7] | CLP [1, 8] | GARD binary prediction [4] | cytotox [5] | HP [2] | Human potency [41] [2] | GARD binary classification relative to cut-off defined by benchmark samples ([4]; misclassified sensitizing chemicals) | SVM DV ([4]; Table 8 chemical list, GARD SVM decision value)
CCCCBr [1-brombutane, 1-bromobutane] | no cat | no cat | non-sens | no cat | no cat | NS (5-6 = NS) | no cat | no cat |  |  |  |  |  |  |  | 
Cc1cccc(O)c1O [3-methylcatechol, 3-Methylcatechol] |  | 1A | sens |  |  | S (HP 1-4 = S) |  |  | 1A | 1A | S | yes |  |  |  | 
CC(C)C1=CC2=CC[C@@H]3[C@](C)(CCC[C@@]3(C)C(=O)O)[C@H]2CC1 [abietic acid] |  | 1B | sens |  |  | S (HP 1-4 = S) |  |  | 1B | 1B | S | no | 3 |  |  | 
CC=Cc1ccc(OC)cc1 [anethole] |  |  |  |  |  | NS (5-6 = NS) | 1B | 1B |  |  |  |  | 5 | 5 |  | 
CCOC(=O)c1ccc(N)cc1 [benzocaine] |  | 1B | sens |  |  | S (HP 1-4 = S) |  |  | 1B |  |  | no | 4 |  | close to the cut-off | 
O=C(O)c1ccccc1 [benzoic acid] | no cat | no cat | non-sens | no cat | no cat | NS (5-6 = NS) | no cat | no cat |  |  |  |  |  |  |  | 
OCc1ccccc1 [benzyl alcohol] |  | no cat | non-sens |  |  | NS (5-6 = NS) |  |  |  | no cat |  | no |  |  |  | 
O=C(OCc1ccccc1)c1ccccc1 [benzyl benzoate] |  |  |  |  |  |  | 1B | 1B |  |  | S | yes |  |  |  | 
CN(C)CCCN1c2ccccc2Sc2ccc(Cl)cc21 [chlorpromazine] |  | 1A | sens |  |  | S (HP 1-4 = S) |  |  | 1A | 1A | S | yes | 3 |  |  | 
CC(C)=CCCC(C)=CC=O [citral] |  | 1B | sens |  |  | S (HP 1-4 = S) |  |  | 1B | 1B | S | yes | 3 |  |  | 
O=C(O)CC(O)(CC(=O)O)C(=O)O [citric acid] |  |  |  |  |  |  |  |  |  |  |  | no |  |  |  | 
CC(C)=CCCC(C)CCO (stereo not shown) [citronellol] |  | 1B | sens |  |  | NS (5-6 = NS) |  |  | 1B | 1B | S | no | 5 |  |  | 
Clc1nc(Cl)nc(Cl)n1 [cyanuric chloride] | 1A | 1A | sens | 1A | 1A | S (HP 1-4 = S) | no cat; also recorded: no category | no cat (2×) and 1B | 1A |  |  | yes |  |  |  | 
OCCNCCO [diethanolamine] |  | 1B | sens |  |  | NS (5-6 = NS) |  |  | 1B | 1B |  | no | 5 |  |  | 
CCOC(=O)/C=C\C(=O)OCC [diethyl maleate] | 1B | 1B | sens | 1B | 1B |  | 1A | 1A |  |  |  |  | 2 | 2 |  | 
CCOC(=O)c1ccccc1C(=O)OCC [diethyl phthalate] | no cat | no cat | non-sens | no cat | no cat |  | no cat | no cat |  |  |  |  | 6 |  |  | −2.15
O=CCCCC=O [glutaraldehyde] | 1A | 1A | sens | 1A | 1A | S (HP 1-4 = S) | 1A | 1A | 1A |  | S | yes | 2 | 2 |  | 
CCCCCCOC(=O)c1ccccc1O [hexyl salicylate] |  | 1A | sens |  |  | S (HP 1-4 = S) |  |  | 1A | 1A | S | yes | 4 |  |  | 
CCCCCCCCCCCCCC(=O)OC(C)C [isopropyl myristate] |  | 1B | sens |  |  | NS (5-6 = NS) |  |  | 1B | 1B |  | no | 5 |  |  | 
C=CC(C)(O)CCC=C(C)C (stereo not shown) [linalool] | 1B | 1B | sens | 1B | 1B | S (HP 1-4 = S) | 1B | no cat and 1B (2×) | 1B |  |  | no | 4 | 4 |  | 
CC(C)(O)CCCC1=CCC(C=O)CC1 (stereo not shown) [lyral] | 1B | 1B | sens | 1B | 1B | S (HP 1-4 = S) | 1A | 1A (2×) and 1B | 1B |  | S | yes | 2 | 2 |  | 
CCCCCC#CC(=O)OC [methyl heptine carbonate] |  | 1A | sens |  |  | S (HP 1-4 = S) |  |  | 1A | 1A | S | yes | 2 |  |  | 
O=C1C=CC(=O)C=C1 [p-benzochinone, p-benzoquinone] |  |  |  |  |  |  | 1A | 1A |  |  |  | yes |  |  |  | 
Oc1c(Cl)c(Cl)c(Cl)c(Cl)c1Cl [pentachlorophenol] |  | 1B | sens |  |  | NS (5-6 = NS) |  |  | 1B | 1B |  | no | 5 |  |  | 
O=C(O)C(O)C(O)C(=O)O (stereo not shown) [tartaric acid] |  |  |  |  |  |  |  |  |  |  |  | no |  |  |  | 
dextran |  | no cat | non-sens |  |  | NS (5-6 = NS) |  |  |  | no cat |  | no | 6 |  |  | 
